Experimental data from ChEMBL document CHEMBL1155981, “Molecular modeling studies to predict the possible binding modes of endomorphin analogs in mu opioid receptor” (Bioorg Med Chem Lett, 2009).
Peptide text beside a SMILES is read from it. * marks the point of attachment. NHBn = c1ccc(CN*)cc1

Each molecule was assayed against Mu-type opioid receptor (Homo sapiens, UniProt P35372) (assay: Binding affinity to human mu opioid receptor).
Chain of Mu-type opioid receptor (P35372 whole entry): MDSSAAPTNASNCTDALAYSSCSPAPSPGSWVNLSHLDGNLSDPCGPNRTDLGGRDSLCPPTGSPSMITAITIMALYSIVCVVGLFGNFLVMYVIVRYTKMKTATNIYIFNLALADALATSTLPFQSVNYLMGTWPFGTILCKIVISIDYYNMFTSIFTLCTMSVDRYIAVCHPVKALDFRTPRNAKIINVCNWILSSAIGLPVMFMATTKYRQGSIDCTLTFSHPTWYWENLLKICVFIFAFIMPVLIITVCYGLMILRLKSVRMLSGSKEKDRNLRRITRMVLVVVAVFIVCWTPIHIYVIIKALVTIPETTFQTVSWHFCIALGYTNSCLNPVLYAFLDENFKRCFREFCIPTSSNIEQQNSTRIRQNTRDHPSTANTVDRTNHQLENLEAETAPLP

Q: Which Ki does the source give for `CC(C)[C@@H](NC(=O)[C@H](Cc1c[nH]c2ccccc12)NC(=O)[C@@H]1CCCN1C(=O)[C@@H](N)Cc1ccc(O)cc1)C(=O)NCc1ccccc1` here?
A: The Ki was 2.32 nM.

Q: Which Ki does the source give for `CC(C)[C@@H](NC(=O)[C@H](Cc1ccccc1)NC(=O)[C@@H]1CCCN1C(=O)[C@@H](N)Cc1ccc(O)cc1)C(=O)NCc1ccccc1` here?
A: Its Ki is 4.97 nM.

Q: Which Ki does the source give for `C[C@@H](NC(=O)[C@H](Cc1c[nH]c2ccccc12)NC(=O)[C@@H]1CCCN1C(=O)[C@@H](N)Cc1ccc(O)cc1)C(=O)NCc1ccccc1` here?
A: Its Ki is 4.56 nM.

Q: How did the Ki turn out when `C[C@@H](NC(=O)[C@H](Cc1ccccc1)NC(=O)[C@@H]1CCCN1C(=O)[C@@H](N)Cc1ccc(O)cc1)C(=O)NCc1ccccc1` was run?
A: Its Ki is 8.67 nM.

Q: `C[C@H](NC(=O)[C@H](Cc1ccccc1)NC(=O)[C@@H]1CCCN1C(=O)[C@@H](N)Cc1ccc(O)cc1)C(=O)NCc1ccccc1` was tested. Which Ki did it give?
A: The Ki was 122 nM.

Q: For `N[C@@H](Cc1ccc(O)cc1)C(=O)N1CCC[C@H]1C(=O)N[C@@H](Cc1c[nH]c2ccccc12)C(=O)NCC(=O)NCc1ccccc1` (H-YPWG-NHBn), which Ki is on record?
A: Its Ki is 56.2 nM.
